The values below come from ChEMBL document CHEMBL4732152, “Flavonoids from Woodfordia fruticosa as potential SmltD inhibitors in the alternative biosynthetic pathway of peptidoglycan” (Bioorg Med Chem Lett, 2021).

Test [1] in a line: Inhibition of Stenotrophomonas maltophilia SmltD using UDP-MurNAc-L-Ala[…] as substrate in presence of ATP incubated for 5 mins by HPLC.
A short description of test [2]: Competitive inhibition of Stenotrophomonas maltophilia SmltD assessed as inhibition constant using ATP as substrate by Dixon plot analysis.
Test [3] has as its system Stenotrophomonas maltophilia. In words: Non-Competitive inhibition of Stenotrophomonas maltophilia SmltD using […] as substrate by Dixon plot analysis.
The subject of test [4] is Stenotrophomonas maltophilia. Put plainly: Non-Competitive inhibition of Stenotrophomonas maltophilia SmltD using UDP-MurNAc-L-Ala[…] as substrate by Dixon plot analysis.

Activity calls are given as the source filed them. No cut-off for these calls is given here. *1 amine or outer side, *2 acyl side, *3 side chain or, on linkers, in order; H or OH if unused. Where a SMILES comes first, the peptide text is derived from it. Bridges are numbered along the chain shown (N, C = ends). Roman numbers before positions name the chains, in order. [ ]: non-standard residue; d: D form. Actinocin(1to9) = Cc1c2oc3c(C)ccc(C(=O)[*:2])c3nc-2c(C(=O)[*:1])c(N)c1=O; NMeV = CN[C@H](C(=O)O)C(C)C; Sar = CNCC(=O)O

Regarding `O=c1c(O[C@@H]2O[C@H](CO)[C@@H](O)[C@H](O)[C@H]2O)c(-c2ccc(O)cc2)oc2cc(O)cc(O)c12` [ASTRAGALIN], the IC50 (as a rule, the concentration at which inhibition is half-maximal) in test [1] (read-out: IC50) is 1180 µM.
As for `Cc1c2oc3c(C)ccc(C(=O)N[C@@H]4C(=O)N[C@H](C(C)C)C(=O)N5CCC[C@H]5C(=O)N(C)CC(=O)N(C)[C@@H](C(C)C)C(=O)O[C@@H]4C)c3nc-2c(C(=O)N[C@@H]2C(=O)N[C@H](C(C)C)C(=O)N3CCC[C@H]3C(=O)N(C)CC(=O)N(C)[C@@H](C(C)C)C(=O)O[C@@H]2C)c(N)c1=O` [DACTINOMYCIN] (I: T[dV]P[Sar][NMeV] / II: T[dV]P[Sar][NMeV]; ester I:1-I:C, II:1-II:C; linker I:N-II:N via Actinocin(1to9)), in test [1] (read-out: IC50), the IC50 turned out to be 14600 µM.
In the case of `O=C(O)c1cc(O)c(O)c(O)c1` [GALLIC ACID], the IC50 in test [1] (read-out: IC50) came to 2860 µM.
Consider `O[C@H]1[C@H](O)[C@@H](O)OC[C@H]1O`, for which, in test [1], the IC50 entry is “Not Active”.
Take `OC[C@H]1O[C@@H](O)[C@H](O)[C@@H](O)[C@@H]1O` [beta-D-Glucose]: the IC50 result in test [1] is listed as “Not Active”.
In the case of `O=c1c(O)c(-c2ccc(O)cc2)oc2cc(O)cc(O)c12` [KAEMPFEROL], the half-inhibitory concentration (IC50) in test [1] (read-out: IC50) was found to be 2360 µM.
Regarding `O=C(OC[C@H]1O[C@@H](Oc2c(-c3ccc(O)cc3)oc3cc(O)cc(O)c3c2=O)[C@H](O)[C@@H](O)[C@@H]1O)c1cc(O)c(O)c(O)c1`, the IC50 in test [1] (read-out: IC50) came out at 460 µM. In test [2], the Ki – broadly, the dissociation constant of the complex between target and ligand, obtained from inhibition or displacement – was determined as 110 µM. Further, the inhibition entry in test [3] and in test [4] was “Active” in each case.
Take `O=c1c(O[C@H]2OC[C@@H](O)[C@@H](O)[C@@H]2O)c(-c2ccc(O)cc2)oc2cc(O)cc(O)c12`: the IC50 in test [1] (read-out: IC50) turned out to be 2050 µM.
